These are literature values, as cited in patent US5807535A, “Metal complexes of hydroxyaryl containing aminocarboxylic acid chelating agents” (Australian Nuclear Science & Technology Organisation, priority 1992, dated 1998).

The conditions of this data set: lymphoma diagnosis; cited from earlier work.

For the molecule `O=C([O-])CC(O)(CC(=O)[O-])C(=O)[O-].[Ga+3]` [Ga-67 citrate], the clearance entry is recorded as “clears slowly from the blood, through the liver, accumulating in the bowel”; the “uptake at the disease sites” value is “relatively fast and selective uptake at the disease sites”.
